In patent US20250114389A1, “NUCLEOSIDES AND NUCLEOTIDES ANALOGS AS ANTIVIRAL AGENTS” (Emory University, priority 2021, published 2025):
Several values for one entry are separate records, joined by “and”; a condition that tells them apart may be missing. Equal values may be shown once. Read-outs that look alike come from different tables or passages of the source.

Experiments:
SARS-CoV-2 [1] = settings: at 1 microM; FIGS. 1A-E (monocytes, epithelial cells, extracellular, total virus)
SARS-CoV-2 [2] = assay: Anti-SARS-CoV-2 activity in Vero cells (virus yield inhibition); type: cell-based
[3] = Quantification of Compound A in mouse lung, brain and plasma; type: in vivo, CD-1 mice; settings: for concentration at 7 h / Brain concentration / Lung concentration: 7 h; for Plasma concentration, average / Plasma concentration: assuming density 1 g/mL
Protocol: CD-1 mice were treated with Compound A PO (30 mg/kg, 3 mice) or IV (15 mg/kg, 3 mice). Lung and brain samples were collected at 7 h.
Lung and brain samples were homogenized with 5× volume of 20% MeOH.
50 μL tissue homogenate was mixed with 250 μL MeOH (containing 40 nM indinavir as IS).
The supernatant was air-dried, then reconstituted in 150 μL of H2O.
Subjected to LC-MS analysis.
Calibration curve range: 30 nM to 30 μM.
Instrument: TSQ Quantiva, Column: Kinetex XB—C8 (50×2.1 mm, 2.6 μm)
LC buffers: A): 0.1% formic acid, and B): Acetonitrile
MRM methods: Compound A (269.2→112 positive), Indinavir (IS, 614.4→421.2 positive, IS)

Omicron = assay: microbe, parasite or virus in culture
[4] = IV 15 mg/kg, individual mice, 15 mg/kg
[5] = PO 30 mg/kg, individual mice, 30 mg/kg

N#C[C@@]1(n2ccc(N)nc2=O)O[C@H](CO)[C@@H](O)[C@H]1O [Compound A, (2R,3R,4S,5R)-2-(4-amino-2-oxopyrimidin-1(2H)-yl)-3,4-dihydroxy-5-(hydroxymethyl)-tetrahydrofuran-2-carbonitrile]
reduction of viral loads (SARS-CoV-2 [1]): 2-3 log | EC50 (SARS-CoV-2 [2]; Severe acute respiratory syndrome coronavirus 2, Table 1, read-out: Anti-SARS-CoV-2 Activity (Vero) EC50): 0.6 µM | EC90 (SARS-CoV-2 [2]; Severe acute respiratory syndrome coronavirus 2, Table 1, read-out: Anti-SARS-CoV-2 Activity (Vero) EC90): 2.3 µM | concentration at 7 h ([3]; CD-1, mouse, brain, iv, 15 mg/kg, IV 15 mg/kg, average of 3 mice, assuming tissue density 1 g/mL, read-out: Brain concentration, average): 270 nM | concentration at 7 h ([3]; CD-1, mouse, brain, iv, 15 mg/kg, IV 15 mg/kg, average of 3 mice, read-out: Brain concentration, average): 71.3 ng/g | concentration at 7 h ([3]; CD-1, mouse, brain, po, 30 mg/kg, PO 30 mg/kg, average of 3 mice, assuming tissue density 1 g/mL, read-out: Brain concentration, average): 200 nM | concentration at 7 h ([3]; CD-1, mouse, brain, po, 30 mg/kg, PO 30 mg/kg, average of 3 mice, read-out: Brain concentration, average): 53.1 ng/g | concentration at 7 h ([3]; CD-1, mouse, brain, po, 30 mg/kg, PO 30 mg/kg, individual mice, assuming tissue density 1 g/mL, read-out: Brain concentration): 280 nM | concentration at 7 h ([3]; CD-1, mouse, brain, po, 30 mg/kg, PO 30 mg/kg, individual mice, read-out: Brain concentration): 73.9 ng/g | concentration at 7 h ([3]; CD-1, mouse, lung, iv, 15 mg/kg, IV 15 mg/kg, average of 3 mice, assuming tissue density 1 g/mL, read-out: Lung concentration, average): 1200 nM | concentration at 7 h ([3]; CD-1, mouse, lung, iv, 15 mg/kg, IV 15 mg/kg, average of 3 mice, read-out: Lung concentration, average): 321 ng/g | concentration at 7 h ([3]; CD-1, mouse, lung, iv, 15 mg/kg, IV 15 mg/kg, individual mice, assuming tissue density 1 g/mL, read-out: Lung concentration): 830 nM | concentration at 7 h ([3]; CD-1, mouse, lung, iv, 15 mg/kg, IV 15 mg/kg, individual mice, read-out: Lung concentration): 223 ng/g | concentration at 7 h ([3]; CD-1, mouse, lung, po, 30 mg/kg, PO 30 mg/kg, average of 3 mice, assuming tissue density 1 g/mL, read-out: Lung concentration, average): 4010 nM | concentration at 7 h ([3]; CD-1, mouse, lung, po, 30 mg/kg, PO 30 mg/kg, average of 3 mice, read-out: Lung concentration, average): 1080 ng/g | Brain concentration [3, 4]: 39.3 ng/g and 56.9 ng/g and 117.8 ng/g | Lung concentration [3, 4]: 412.0 ng/g and 327.1 ng/g | concentration at 7 h ([3]; IV 15 mg/kg, individual mice, assuming tissue density 1 g/mL, 15 mg/kg, read-out: Brain concentration): 150 nM and 210 nM and 440 nM | concentration at 7 h ([3]; IV 15 mg/kg, individual mice, assuming tissue density 1 g/mL, 15 mg/kg, read-out: Lung concentration): 1540 nM and 1220 nM | Plasma concentration, average ([3]; IV 15 mg/kg, average of 3 mice): 520 nM | Plasma concentration [3, 4]: 370 nM and 610 nM and 590 nM | Brain concentration [3, 5]: 40.8 ng/g and 44.7 ng/g | Lung concentration [3, 5]: 881.8 ng/g and 730.8 ng/g and 1,615 ng/g | concentration at 7 h ([3]; PO 30 mg/kg, individual mice, assuming tissue density 1 g/mL, 30 mg/kg, read-out: Brain concentration): 150 nM and 170 nM | concentration at 7 h ([3]; PO 30 mg/kg, individual mice, assuming tissue density 1 g/mL, 30 mg/kg, read-out: Lung concentration): 3290 nM and 2720 nM and 6020 nM | Plasma concentration, average ([3]; PO 30 mg/kg, average of 3 mice): 3130 nM | Plasma concentration [3, 5]: 2090 nM and 2320 nM and 4990 nM | EC50 (Omicron; Severe acute respiratory syndrome coronavirus 2, Caco-2, read-out: Anti-Omicron Activity (Caco-2) EC50): 1.2 µM | EC90 (Omicron; Severe acute respiratory syndrome coronavirus 2, Caco-2, read-out: Anti-Omicron Activity (Caco-2) EC90): 2.2 µM
